Test results from PubChem BioAssay (NCI).
“And” between values parts separate entries of the source, which are not always exact repeats. Identical values can stand only once.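 How tested: cells in 96-well plates exposed to compound for 48 hours at five concentrations. Here, GI50 denotes the concentration required for 50% inhibition of growth. TGI: concentration producing complete growth inhibition.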

Assays:
Experiment in all cases: NCI anticancer screen, dose series, 48 h
MDA-MB-468 breast = test system: MDA-MB-468 breast
786-0 renal = test system: 786-0 renal
A498 renal = test system: A498 renal
CAKI-1 renal = test system: CAKI-1 renal
CCRF-CEM leukemia = test system: CCRF-CEM leukemia
DU-145 prostate = test system: DU-145 prostate
EKVX NSCLC = test system: EKVX NSCLC
HCC-2998 colon = test system: HCC-2998 colon
HCT-15 colon = test system: HCT-15 colon
HS 578T breast = test system: HS 578T breast
KM12 colon = test system: KM12 colon
LOX IMVI melanoma = test system: LOX IMVI melanoma
MALME-3M melanoma = test system: MALME-3M melanoma
MCF7 breast = test system: MCF7 breast
MDA-MB-435 = test system: MDA-MB-435
NCI-H522 lung = test system: NCI-H522 lung
OVCAR-3 ovarian = test system: OVCAR-3 ovarian
OVCAR-5 ovarian = test system: OVCAR-5 ovarian
RPMI-8226 leukemia = test system: RPMI-8226 leukemia
RXF 393 renal = test system: RXF 393 renal
SF-268 CNS = test system: SF-268 CNS
SF-295 CNS = test system: SF-295 CNS
SF-539 CNS = test system: SF-539 CNS
SK-MEL-2 melanoma = test system: SK-MEL-2 melanoma
SK-MEL-5 melanoma = test system: SK-MEL-5 melanoma
SK-OV-3 ovarian = test system: SK-OV-3 ovarian
SN12C renal = test system: SN12C renal
SNB-75 CNS = test system: SNB-75 CNS
SR leukemia = test system: SR leukemia
T-47D breast = test system: T-47D breast
TK-10 renal = test system: TK-10 renal
UACC-257 melanoma = test system: UACC-257 melanoma
UACC-62 melanoma = test system: UACC-62 melanoma

CC1=C(CN(O)C(N)=O)C2=C(C)C3(CC3)[C@@](C)(O)C(=O)C2=C1
GI50 (MDA-MB-468 breast): 0.141 µM | TGI (MDA-MB-468 breast): 0.347 µM

COc1ccc(S(=O)(=O)Nc2cc(/C=C\c3cc(OC)c(OC)c(OC)c3)cc(OC)c2OC)cc1OC
GI50 (MDA-MB-468 breast): 0.269 µM | TGI (MDA-MB-468 breast): 1.29 µM

Cn1cc(-c2cc(N)n3nc(-c4c[nH]c5ccc(Br)cc45)cc3n2)c2cccnc21
GI50 (786-0 renal): 1.57 µM | TGI (786-0 renal): 3 µM | GI50 (A498 renal): 1.72 µM | TGI (A498 renal): 3.63 µM | GI50 (CAKI-1 renal): 1.8 µM | TGI (CAKI-1 renal): 3.86 µM | GI50 (CCRF-CEM leukemia): 3.84 µM | TGI (CCRF-CEM leukemia): > 100 µM | GI50 (DU-145 prostate): 1.82 µM | TGI (DU-145 prostate): 3.4 µM | GI50 (EKVX NSCLC): 2.34 µM | TGI (EKVX NSCLC): 6.04 µM | GI50 (HCC-2998 colon): 1.82 µM | TGI (HCC-2998 colon): 3.27 µM | GI50 (HCT-15 colon): 2.71 µM | TGI (HCT-15 colon): 8.28 µM | GI50 (HS 578T breast): 2.32 µM | TGI (HS 578T breast): 5.61 µM | GI50 (KM12 colon): 1.78 µM | TGI (KM12 colon): 3.35 µM | GI50 (LOX IMVI melanoma): 1.82 µM | TGI (LOX IMVI melanoma): 3.21 µM | GI50 (MALME-3M melanoma): 1.52 µM | TGI (MALME-3M melanoma): 2.91 µM | GI50 (MCF7 breast): 3.01 µM | TGI (MCF7 breast): > 100 µM | GI50 (MDA-MB-435): 1.7 µM | TGI (MDA-MB-435): 3.16 µM | GI50 (MDA-MB-468 breast): 1.59 µM | TGI (MDA-MB-468 breast): 3.24 µM | GI50 (NCI-H522 lung): 1.85 µM | TGI (NCI-H522 lung): 3.54 µM | GI50 (OVCAR-3 ovarian): 1.67 µM | TGI (OVCAR-3 ovarian): 3.12 µM | GI50 (OVCAR-5 ovarian): 1.41 µM | TGI (OVCAR-5 ovarian): 3.24 µM | GI50 (RPMI-8226 leukemia): 4.04 µM | TGI (RPMI-8226 leukemia): > 100 µM | GI50 (RXF 393 renal): 1.65 µM | TGI (RXF 393 renal): 3.24 µM | GI50 (SF-268 CNS): 2.03 µM | TGI (SF-268 CNS): 4.71 µM | GI50 (SF-295 CNS): 2.2 µM | TGI (SF-295 CNS): 5.09 µM | GI50 (SF-539 CNS): 1.58 µM | TGI (SF-539 CNS): 2.97 µM | GI50 (SK-MEL-2 melanoma): 17.2 µM | TGI (SK-MEL-2 melanoma): 40 µM | GI50 (SK-MEL-5 melanoma): 1.75 µM | TGI (SK-MEL-5 melanoma): 3.28 µM | GI50 (SK-OV-3 ovarian): 22.8 µM | TGI (SK-OV-3 ovarian): 44.4 µM | GI50 (SN12C renal): 1.82 µM | TGI (SN12C renal): 3.72 µM | GI50 (SNB-75 CNS): 1.29 µM | TGI (SNB-75 CNS): 2.57 µM | GI50 (SR leukemia): 2.72 µM | TGI (SR leukemia): > 100 µM | GI50 (T-47D breast): 2.03 µM | TGI (T-47D breast): 5.07 µM | GI50 (TK-10 renal): 2.11 µM | TGI (TK-10 renal): 7.4 µM | GI50 (UACC-257 melanoma): 1.75 µM | TGI (UACC-257 melanoma): 3.48 µM | GI50 (UACC-62 melanoma): 1.73 µM | TGI (UACC-62 melanoma): 3.17 µM

COc1c(Nc2ncc(Cl)c(N[C@@H]3[C@H]4C=CC(C4)[C@@H]3C(N)=O)n2)ccc2c1CC[C@@H](N1CCOCC1)CC2
GI50 (MDA-MB-468 breast): 2.2 µM | TGI (MDA-MB-468 breast): 8.13 µM

CCS(=O)(=O)c1ccc(OC)c(Nc2ncc(-c3cccc(-c4ccccc4F)c3)o2)c1
GI50 (MDA-MB-468 breast): 4.95 µM | TGI (MDA-MB-468 breast): > 25 µM

Nc1cccc(-c2nc3sccn3c2-c2ccnc(NCCCNS(=O)(=O)c3ccc(C(F)(F)F)cc3)n2)c1
GI50 (MDA-MB-468 breast): 2.44 µM | TGI (MDA-MB-468 breast): 33.8 µM

O=C(Nc1cccnc1)c1cccs1
GI50 (MDA-MB-468 breast): 0.603 µM | TGI (MDA-MB-468 breast): > 100 µM

O=S(=O)(c1ccc2c(c1)C(=NO)c1cc(S(=O)(=O)N3CCCCC3)ccc1-2)N1CCCCC1
GI50 (MDA-MB-468 breast): 0.237 µM and 0.137 µM | TGI (MDA-MB-468 breast): 0.608 µM and 0.277 µM

C[C@H](Nc1ccc(C#N)n(C)c1=O)c1cc2cc(Cl)ccc2[nH]c1=O
GI50 (MDA-MB-468 breast): 21.6 µM | TGI (MDA-MB-468 breast): 84 µM

N#Cc1cc(-c2ccccc2)[nH]c1-c1nccc2ccccc12
GI50 (MDA-MB-468 breast): 3.33 µM | TGI (MDA-MB-468 breast): 44.9 µM
